# Assay results from the supplement of paper PMC11061612.
# Columns and labels:
# [1] = system: NCI-H720 (Other Solid Carcinomas); experiment: Bliss excess, mean over the matrix (fraction); higher = more synergy
# Method in brief: (§1)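 After 24 hours at 37°C and 5% CO2 in 1536-well plates, cells in DMEM/F12 or RPMI plus 10% FBS received two-drug dose matrices for 72 hours. Viability came from CellTiter-Glo 2.0 luminescence and was scaled as inhibition, anchored at 0 by vehicle wells and at 1 by blank wells. Combination Emax is taken as the second-highest inhibition in the matrix, and Bliss excess as the observed combination effect less EA + EB − EA·EB, with EA and EB the single-agent effects.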
# [2] = system: ALL-PO (B-Lymphoblastic Leukemia); experiment: combination Emax (second highest fraction inhibited in the dose matrix, 72 h); higher = more inhibition; extreme values may be limits of the assay
# Method in brief: as §1
# [3] = system: BFTC-909 (Kidney Carcinoma); experiment: as above
# Method in brief: as §1
# [4] = system: GAMG (Glioblastoma); experiment: as above
# Method in brief: as §1
# [5] = system: Hs-746T (Gastric Carcinoma); experiment: as above
# Method in brief: as §1
# [6] = system: KS-1 (Glioblastoma); experiment: as above
# Method in brief: as §1
# [7] = system: L-428 (Hodgkin's Lymphoma); experiment: as above
# Method in brief: as §1
# [8] = system: LCLC-97TM1 (Non-Small Cell Lung Carcinoma); experiment: as above
# Method in brief: as §1
# [9] = system: NCI-H209 (Small Cell Lung Carcinoma); experiment: as above
# Method in brief: as §1
# [10] = system: NCI-H720 (Other Solid Carcinomas); experiment: as above
# Method in brief: as §1
# [11] = system: TGBC1TKB (Biliary Tract Carcinoma); experiment: as above
# Method in brief: as §1
# [12] = system: YAPC (Pancreatic Carcinoma); experiment: as above
# Method in brief: as §1
# 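Wherever Bliss excess, mean over the matrix is given: after 72 h of two-drug dosing.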
SMILES,Bliss excess [1],combination Emax [2],combination Emax [3],combination Emax [4],combination Emax [5],combination Emax [6],combination Emax [7],combination Emax [8],combination Emax [9],combination Emax [10],combination Emax [11],combination Emax [12]
"C[C@@H]1COCCN1c1cc(C2([S@](C)(=N)=O)CC2)nc(-c2ccnc3[nH]ccc23)n1 [AZD6738] + O=C(c1cc(Cc2n[nH]c(=O)c3ccccc23)ccc1F)N1CCN(C(=O)C2CC2)CC1 [Olaparib] (first compound max 10 µM, 7x7, partner max 10 µM)",-0.0398,0.955,0.728,0.388,0.582,0.573,0.728,0.826,0.94,0.687,0.397,0.288
"COc1cccc2c1C(=O)c1c(O)c3c(c(O)c1C2=O)C[C@@](O)(C(=O)CO)C[C@@H]3O[C@H]1C[C@H](N)[C@H](O)[C@H](C)O1 [Doxorubicin] + Cc1cc2ncnn2cc1Nc1ncc2c(n1)n(C1CCOCC1)c(=O)n2C [AZD7648] (first compound max 1 µM, 7x7, partner max 10 µM)",0.0281,1,0.853,0.945,0.737,0.619,0.937,0.6,0.993,0.478,0.366,0.381
"COc1cccc(OCCCN)c1-c1cc(Nc2cnc(C#N)cn2)n[nH]1 [Prexasertib] + C=CCn1c(=O)c2cnc(Nc3ccc(N4CCN(C)CC4)cc3)nc2n1-c1cccc(C(C)(C)O)n1 [AZD1775] (first compound max 1 µM, partner max 1 µM)",0.107,0.989,0.977,0.951,0.78,0.581,0.955,0.951,0.988,0.692,0.446,0.669
"COc1cccc(OCCCN)c1-c1cc(Nc2cnc(C#N)cn2)n[nH]1 [Prexasertib] + CCc1c2c(nc3ccc(O)cc13)-c1cc3c(c(=O)n1C2)COC(=O)[C@]3(O)CC [SN-38] (first compound max 1 µM, 7x7, partner max 0.3 µM)",0.197,0.993,0.996,0.993,0.813,0.536,0.979,1,1,0.886,0.632,0.653
"COc1cccc(OCCCN)c1-c1cc(Nc2cnc(C#N)cn2)n[nH]1 [Prexasertib] + CN(C)CCCOc1ccc(-c2ccc3ncc4c(c3c2)n(C2CCOCC2)c(=O)n4C)cn1 [AZD0156] (first compound max 1 µM, 7x7, partner max 1 µM)",0.0149,0.979,0.936,0.843,0.78,0.581,0.958,0.925,0.94,0.562,0.361,0.559
"COc1cccc(OCCCN)c1-c1cc(Nc2cnc(C#N)cn2)n[nH]1 [Prexasertib] + C[C@@H]1COCCN1C2=NC(=NC(=C2)C3(CC3)[S@](=N)(=O)C)C4=C5C=CNC5=NC=C4 [AZD6738] (first compound max 1 µM, 7x7, partner max 10 µM)",-0.0325,0.982,0.94,0.874,0.754,0.581,0.95,0.941,0.959,0.697,0.552,0.555
"COc1cccc(OCCCN)c1-c1cc(Nc2cnc(C#N)cn2)n[nH]1 [Prexasertib] + Cc1cc2ncnn2cc1Nc1ncc2c(n1)n(C1CCOCC1)c(=O)n2C [AZD7648] (first compound max 1 µM, 7x7, partner max 10 µM)",0.0515,0.993,0.945,0.777,0.78,0.546,0.958,0.938,0.974,0.746,0.483,0.585
"COc1cccc(OCCCN)c1-c1cc(Nc2cnc(C#N)cn2)n[nH]1 [Prexasertib] + O=C(c1cc(Cc2n[nH]c(=O)c3ccccc23)ccc1F)N1CCN(C(=O)C2CC2)CC1 [Olaparib] (first compound max 1 µM, 7x7, partner max 10 µM)",0.0208,0.979,0.917,0.83,0.806,0.628,0.953,0.936,0.965,0.64,0.446,0.597
"CCc1c2c(nc3ccc(O)cc13)-c1cc3c(c(=O)n1C2)COC(=O)[C@]3(O)CC [SN-38] + CN(C)CCCOc1ccc(-c2ccc3ncc4c(c3c2)n(C2CCOCC2)c(=O)n4C)cn1 [AZD0156] (first compound max 0.3 µM, 7x7, partner max 1 µM)",0.035,0.985,0.899,0.737,0.531,0.464,0.894,0.693,1,0.397,0.366,0.51
